Results reported in patent US20240059703A1 (AMGEN INC., priority 2021, published 2024).

Assays:
KRAS G12C = KRAS G12C (Homo sapiens (Human), UniProt P01116, C118A/G12C); assay: 2 h coupled exchange assay; type: biochemical; conditions: Avg 2 h Coupled exchange IC50, 2 h compound pre-incubation, SOS-mediated nucleotide exchange
Method: The term “2 h coupled exchange assay” or “20 h coupled exchange assay” as used herein refers to the assay described in the Section entitled “BIOLOGICAL EVALUATION.”

[1] = tested on: MIA PaCa-2 (human pancreatic carcinoma) cells; assay: Cell Viability Assay (CellTiter-Glo), MIA PaCa-2; type: cell-based; conditions: Homo sapiens, MIA PaCa-2, 72 h
Method: Serially-diluted compound or DMSO was added to the cells, and plates were incubated at 37° C., 5% CO2 for 72 h. Cell viability was measured using a CellTiter-Glo® Luminescent Cell Viability Assay kit (Promega) according to the manufacturer's protocol. The luminescence signal of treated samples was normalized to DMSO control, and data were analyzed using a 4-parameter logistic model to calculate IC50 values.

[2] = tested on: A549 (human lung carcinoma) cells; assay: Cell Viability Assay (CellTiter-Glo), A549; type: cell-based; conditions: Homo sapiens, A549, 72 h
In short: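 Cells grown in RPMI 1640 with 10% FBS were seeded at 1.67E+04 cells/mL and left overnight at 37° C., 5% CO2. They were then exposed to serially diluted compound for 72 h, after which CellTiter-Glo luminescence was read, normalized to DMSO, and fitted to a 4-parameter logistic model for IC50.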

Chain of KRAS G12C (P01116 other isoform, or with tags, fused parts or gaps G12C/C118A): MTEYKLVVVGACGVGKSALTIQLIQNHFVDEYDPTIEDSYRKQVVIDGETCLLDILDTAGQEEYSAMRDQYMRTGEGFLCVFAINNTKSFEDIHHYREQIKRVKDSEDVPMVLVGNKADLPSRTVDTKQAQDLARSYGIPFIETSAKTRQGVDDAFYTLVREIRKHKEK

Row | Compound | IC50 (KRAS G12C) [nM] | IC50 [1] [µM] | IC50 [2] [µM]
1 | C=CC(=O)N1CC2(CCN(c3nc4c(C)cccc4c(-c4c(C)ccc5[nH]ncc45)c3C#N)C2)C1 [Example 1-6, 8-methyl-4-(5-methyl-1H-indazol-4-yl)-2-(2-(2-propenoyl)-2,6-diazaspiro[3.4]octan-6-yl)-3-quinolinecarbonitrile] | 1890 | 1.14 | 6.44
2 | C=CC(=O)N1CC2(CCN(c3nc4c(c(-c5c(C)ccc6[nH]ncc56)n3)CCC(C)C4)C2)C1 (stereo not drawn) [Example 1-11, 1-(6-((7)-7-methyl-4-(5-methyl-1H-indazol-4-yl)-5,6,7,8-tetrahydro-2-quinazolinyl)-2,6-diazaspiro[3.4]octan-2-yl)-2-propen-1-one] | 3090 | > 5 | > 5
3 | C=CC(=O)N1CC2(CCN(c3nc(-c4c(C)ccc5[nH]ncc45)c4c(n3)C(C)CCC4)C2)C1 (stereo not drawn) [Example 1-15, 1-(6-((8)-8-methyl-4-(5-methyl-1H-indazol-4-yl)-5,6,7,8-tetrahydro-2-quinazolinyl)-2,6-diazaspiro[3.4]octan-2-yl)-2-propen-1-one] | 9060 | > 5 | > 5
4 | C=CC(=O)N1CC2(CCN(c3nc4c(c(-c5c(C)ccc6cn[nH]c56)n3)CCCC4)C2)C1 [Example 1-16, 1-(6-(4-(6-methyl-1H-indazol-7-yl)-5,6,7,8-tetrahydro-2-quinazolinyl)-2,6-diazaspiro[3.4]octan-2-yl)-2-propen-1-one] | 6720 | 10.3 | > 25
5 | C=CC(=O)N1CC2(CCN(c3nc4c(c(-c5cc(O)ccc5Cl)n3)CCCC4)C2)C1 [Example 1-18, 1-(6-(4-(2-chloro-5-hydroxyphenyl)-5,6,7,8-tetrahydro-2-quinazolinyl)-2,6-diazaspiro[3.4]octan-2-yl)-2-propen-1-one] | 8460 | 8.67 | 9.46
6 | C=CC(=O)N1CC2(CCN(c3nc4c(c(-c5cccc6cc(O)ccc56)n3)CCCC4)C2)C1 [Example 1-21, 1-(6-(4-(6-hydroxy-1-naphthalenyl)-5,6,7,8-tetrahydro-2-quinazolinyl)-2,6-diazaspiro[3.4]octan-2-yl)-2-propen-1-one] | 435 | > 5 | > 5
7 | C=CC(=O)N1CC2(CCN(c3nc4c(c(-c5cccc6sc(N)nc56)n3)CCCC4)C2)C1 [Example 1-23, 1-(6-(4-(2-amino-1,3-benzothiazol-4-yl)-5,6,7,8-tetrahydro-2-quinazolinyl)-2,6-diazaspiro[3,4]octan-2-yl)-2-propen-1-one] | 1220 | 5.27 | 10.5
8 | C=CC(=O)N1CC2(CCN(c3nc4c(c(-c5cccc(Cl)c5Cl)n3)CCCC4)C2)C1 [Example 1-24, 1-(6-(4-(2,3-dichlorophenyl)-5,6,7,8-tetrahydro-2-quinazolinyl)-2,6-diazaspiro[3.4]octan-2-yl)-2-propen-1-one] | 4250 | 8.29 | 10.6
9 | C=CC(=O)N1CC2(CCN(c3nc4c(c(-c5cccc(C)c5C)n3)CCCC4)C2)C1 [Example 1-26, 1-(6-(4-(2,3-dimethylphenyl)-5,6,7,8-tetrahydro-2-quinazolinyl)-2,6-diazaspiro[3.4]octan-2-yl)-2-propen-1-one] | 3980 | 9.82 | 13.8
10 | C=CC(=O)N1CC2(CCN(c3nc(-c4cccc5cccc(C)c45)c4c(n3)N(C)CCO4)C2)C1 [Example 1-28, 1-(6-(8-methyl-4-(8-methyl-1-naphthalenyl)-7,8-dihydro-6H-pyrimido[5,4-b][1,4]oxazin-2-yl)-2,6-diazaspiro[3.4]octan-2-yl)-2-propen-1-one] | 2980 | 9.36 | 11.5
11 | C=CC(=O)N1CC2(CCN(c3nc4c(c(-c5cc(O)cc6ccccc56)n3)CCC(C)(C)C4)C2)C1 [Example 1-31, 1-(6-(4-(3-hydroxy-1-naphthalenyl)-7,7-dimethyl-5,6,7,8-tetrahydro-2-quinazolinyl)-2,6-diazaspiro[3.4]octan-2-yl)-2-propen-1-one] | 75 | > 5 | > 5
12 | C=CC(=O)N1CC2(CCN(c3nc4c(c(-c5c(C(C)C)ccc6[nH]ncc56)n3)CCCC4)C2)C1 [Example 1-35, 1-(6-(4-(5-(2-propanyl)-1H-indazol-4-yl)-5,6,7,8-tetrahydro-2-quinazolinyl)-2,6-diazaspiro[3.4]octan-2-yl)-2-propen-1-one] | 1550 | 2.37 | 7.12

More lines, in order of falling IC50 (KRAS G12C), values ahead:

Row | IC50 (KRAS G12C) [nM] | IC50 [1] [µM] | IC50 [2] [µM] | Compound
13 | 250000 | 17.1 | 12.1 | C=CC(=O)N1CC2(CCN(c3nc(-c4ccccc4F)c4ccn(C)c4n3)C2)C1 [Example 1-32]
14 | 174000 | 13.4 | 13.5 | C=CC(=O)N1CC2(CCN(c3nc(-c4ccccc4F)c4c(n3)N(C)CCC4)C2)C1 [Example 1-33, 1-(6-(4-(2-fluorophenyl)-8-methyl-5,6,7,8-tetrahydropyrido[2,3-d]pyrimidin-2-yl)-2,6-diazaspiro[3,4]octan-2-yl)-2-propen-1-one]
15 | 5760 | > 5 | > 5 | C=CC(=O)N1CC2(CCN(c3nc4c(c(-c5c(C)ccc6[nH]ncc56)n3)CCCC4)C2)C1 [Example 1-17, 1-(6-(4-(5-methyl-1H-indazol-4-yl)-5,6,7,8-tetrahydro-2-quinazolinyl)-2,6-diazaspiro[3.4]octan-2-yl)-2-propen-1-one]
16 | 5170 | 11.8 | 20.8 | C=CC(=O)N1CC2(CCN(c3nc4c(c(-c5cccc(C)c5Cl)n3)CCCC4)C2)C1 [Example 1-27, 1-(6-(4-(2-chloro-3-methylphenyl)-5,6,7,8-tetrahydro-2-quinazolinyl)-2,6-diazaspiro[3.4]octan-2-yl)-2-propen-1-one]
17 | 4580 | 18.1 | > 25 | C=CC(=O)N1CC2(CCN(c3nc4c(c(-c5cccc6cccc(Cl)c56)n3)CCCC4)C2)C1 [Example 1-9, 1-(6-(4-(8-chloro-1-naphthalenyl)-5,6,7,8-tetrahydro-2-quinazolinyl)-2,6-diazaspiro[3.4]octan-2-yl)-2-propen-1-one]
18 | 3460 | > 5 | 10.3 | C=CC(=O)N1CC2(CCN(c3nc4c(c(-c5cccc6cccc(C)c56)n3)CCC(C)(C)C4)C2)C1 [Example 1-30, 1-(6-(7,7-dimethyl-4-(8-methyl-1-naphthalenyl)-5,6,7,8-tetrahydro-2-quinazolinyl)-2,6-diazaspiro[3.4]octan-2-yl)-2-propen-1-one]
19 | 2600 | 8.86 | 20.3 | C=CC(=O)N1CC2(CCN(c3nc4c(c(-c5c(C)ccc6cnn(C)c56)n3)CCCC4)C2)C1 [Example 1-25, 1-(6-(4-(1,6-dimethyl-1H-indazol-7-yl)-5,6,7,8-tetrahydro-2-quinazolinyl)-2,6-diazaspiro[3.4]octan-2-yl)-2-propen-1-one]
20 | 2590 | 5.39 | 7.23 | C=CC(=O)N1CC2(CCN(c3nc4c(c(-c5c(C)ccc6ccccc56)n3)CCCC4)C2)C1 [Example 1-12, 1-(6-(4-(2-methyl-1-naphthalenyl)-5,6,7,8-tetrahydro-2-quinazolinyl)-2,6-diazaspiro[3.4]octan-2-yl)-2-propen-1-one]
21 | 1660 | 3.38 | 15.9 | C=CC(=O)N1CC2(CCN(c3nc4c(c(-c5c(C)ccc6[nH]nc(C)c56)n3)CCCC4)C2)C1 [Example 1-36, 1-(6-(4-(3,5-dimethyl-1H-indazol-4-yl)-5,6,7,8-tetrahydro-2-quinazolinyl)-2,6-diazaspiro[3.4]octan-2-yl)-2-propen-1-one]
22 | 1140 | 4.26 | > 25 | C=CC(=O)N1CC2(CCN(c3nc(-c4cc(O)cc5ccccc45)c4ncc(C)cc4n3)C2)C1 [Example 1-22, 1-(6-(4-(3-hydroxy-1-naphthalenyl)-7-methylpyrido[3,2-d]pyrimidin-2-yl)-2,6-diazaspiro[3.4]octan-2-yl)-2-propen-1-one]
23 | 997 | > 5 | > 5 | C=CC(=O)N1CC2(CCN(c3nc4c(c(-c5cccc6cccc(C)c56)n3)CCCC4)C2)C1 [Example 1-7, 1-(6-(4-(8-methyl-1-naphthalenyl)-5,6,7,8-tetrahydro-2-quinazolinyl)-2,6-diazaspiro[3,4]octan-2-yl)-2-propen-1-one]
24 | 601 | 1.88 | 3.12 | C=CC(=O)N1CC2(C1)CN(c1nc3c(F)cccc3c(-c3c(C)ccc4[nH]ncc34)c1C#N)CC2F (stereo not drawn) [Example 1-13, 8-fluoro-2-((8)-8-fluoro-2-(2-propenoyl)-2,6-diazaspiro[3.4]octan-6-yl)-4-(5-methyl-1H-indazol-4-yl)-3-quinolinecarbonitrile]
25 | 327 | 0.069 | 1.09 | C#CC(=O)N1CC2(CCN(c3nc4c(F)cccc4c(-c4c(C)ccc5[nH]ncc45)c3C#N)C2)C1 [Example 1-14, 8-fluoro-4-(5-methyl-1H-indazol-4-yl)-2-(2-(2-propynoyl)-2,6-diazaspiro[3.4]octan-6-yl)-3-quinolinecarbonitrile]
